{"source": "patent US10226514B2", "about": "“Methods and compositions for reducing blood glucose levels” (The Children's Medical Center Corporation, priority 2011, dated 2019)", "molecules": {"B1": {"name": "T48A: mutant XBP1s with Thr48 residue mutated to alanine (protein)", "chain": "MVVVAAAPSAATAAPKVLLLSGQPASGGRALPLMVPGPRAAGSEASGAPQARKRQRLTHLSPEEKALRRKLKNRVAAQTARDRKKARMSELEQQVVDLEEENHKLQLENQLLREKTHGLVVENQELRTRLGMDTLDPDEVPEVEAKGSGVRLVAGSAESAAGAGPVVTSPEHLPMDSDTVASSDSESDILLGILDKLDPVMFFKCPSPESASLEELPEVYPEGPSSLPASLSLSVGTSSAKLEAINELIRFDHVYTKPLVLEIPSETESQTNVVVKIEEAPLSSSEEDHPEFIVSVKKEPLEDDFIPELGISNLLSSSHCLRPPSCLLDAHSDCGYEGSPSPFSDMSSPLGTDHSWEDTFANELFPQLISV"}, "B2": {"name": "S61A: amino acid substitution mutant XBP1s at Ser61 (protein)", "chain": "MVVVAAAPSAATAAPKVLLLSGQPASGGRALPLMVPGPRAAGSEASGTPQARKRQRLTHLAPEEKALRRKLKNRVAAQTARDRKKARMSELEQQVVDLEEENHKLQLENQLLREKTHGLVVENQELRTRLGMDTLDPDEVPEVEAKGSGVRLVAGSAESAAGAGPVVTSPEHLPMDSDTVASSDSESDILLGILDKLDPVMFFKCPSPESASLEELPEVYPEGPSSLPASLSLSVGTSSAKLEAINELIRFDHVYTKPLVLEIPSETESQTNVVVKIEEAPLSSSEEDHPEFIVSVKKEPLEDDFIPELGISNLLSSSHCLRPPSCLLDAHSDCGYEGSPSPFSDMSSPLGTDHSWEDTFANELFPQLISV"}}, "key": {"[1]": {"tested_on": "XBP1s", "test": "XBP1s protein levels in Ad-XBP1s-infected MEFs (western blot)", "assay_type": "cell-based, mouse", "protocol": "(§1) MEF cells were from American Type Tissue Collection (ATCC). These cells were grown in Dulbecco's Modified Eagel Medium (DMEM) supplemented with 10% fetal bovine serum (FBS), 10 U/ml penicillin and 1 μg/ml streptomycin at 37° C. and 5% CO2. Fao cells were maintained in RPMI 1640 medium (Invitrogen) supplemented with 10% fetal bovine serum (FBS), 10 U/ml penicillin and 1 μg/ml streptomycin.\n(§2) Adenovirus expressing XBP1s T48A, XBP1s S61A, XBP1s T48A/S61A and MKK6Glu were produced with ViraPower Adenoviral Expression System (Invitrogen) according to manufacturer's instruction. Briefly, pAD-XBP1s T48A, pAD-XBP1s S61A, pAd-XBP1s T48A/S61A and pAd-MKK6Glu were linearized by restriction endonuclease digestion with PacI and transfected to 293A cells by Lipofectamine. The media was changed with fresh media every other day until the cytopathic effect was observed. When cytopathic effect reached to 80%, cells were collected by centrifugation. The pellet was resuspended in PBS and subjected to freezing and thawing cycles at −80° C. and 37° C. for 4 times. The supernatant containing the virus was prepared by centrifugation at 4,000 rpm for 20 min at room temperature. Ad-XBP s and Ad-Cre were generated as described previously (Ozcan, L., et al. (2009) Cell metabolism 9:35-51). For infection, cells were incubated with adenovirus in reduced volume of medium containing 1% FBS and antibiotics. Cells were gently rocked every 15 min for 1 h to increase efficiency of infection, and then fresh medium were added and cells were incubated for additional 15 h or 23 h.\nCells were lysed in lysis buffer (25 mM Tris-HCl, pH 7.4; 10 mM NaF; 10 mM Na4P207; 2 mM Na3VO4; 1 mM EGTA; 1 mM EDTA; 1% NP-40; 10 μg/ml Leupeptin; 10 μg/ml Aprotinin; 1 mM PMSF and 20 nM Okadaic acid). After 20 min-rotation at 4° C., cell lysates were centrifuged at 13,200 rpm for 20 min at 4° C. Supernatants were collected and protein concentration was quantified by using Protein Assay Kit (Bio-Rad). The concentrations of protein were normalized with lysis buffer to have equivalent amounts of protein and volume. Protein was denatured by boiling at 100° C. for 5 min in Laemmli buffer. The lysates were cooled to room temperature before loading for western blot analysis.\nWestern blot analysis was performed as previously described (Ozcan, L., et al. (2009) Cell metabolism 9:35-51). Samples from cell lysates or tissue lysates were resolved by SDS-PAGE and then transferred to polyvinylidene fluoride (PVDF) membrane. After 1 h blocking at room temperature using 10% blocking reagent (Roche), membrane was incubated overnight with primary antibody in Tris-buffered saline solution/Tween (TBST) containing 10% blocking reagent at 4° C. After the incubation, membrane was washed three times in TBST and incubated with secondary antibody for 1 h at room temperature. After three-time washing in TBST, membrane was developed using a chemiluminescence assay system (Roche) and exposed to Kodak films. Relative protein levels were quantified by Image J program."}, "[2]": {"tested_on": "p38 MAPK", "test": "Fasting/re-feeding of lean mice treated with p38 MAPK inhibitor", "assay_type": "in vivo, mouse", "conditions": "2 mg/kg/day intraperitoneally three days", "protocol": "For liver tissue, a kit from Thermo Scientific (Rockford, Ill.) was used according to the manufacturer's instruction. Liver tissues were cut into small pieces, washed with PBS, and separated from PBS by centrifugation at 500×g for 5 minutes. Collected tissues were resuspended by company-supplied CER I buffer and homogenized with a Dounce homogenizer. Homogenized tissues were vortexed and incubated on ice for 10 minutes. Following CER II buffer addition, tissues were vortexed for 5 seconds, incubated for 1 minute on ice, vortexed again, and then centrifuged for 5 minutes at maximum speed in a microcentrifuge. The supernatant (cytoplasmic fraction) was saved for later analysis. The pellets were resuspended with supplied NER buffer and undergone a series of multiple vortexing (15 seconds) and incubation on ice (10 minutes) for a total of 40 minutes. After 10-minute centrifugation, the supernatant (nuclear fraction) was collected and analyzed with immunoblotting.\nTissues were homogenized with a bench-top homogenizer (Polytron, PT2100) in ice-cold tissue lysis buffer (25 mM Tris-HCl, pH 7.4; 100 mM NaF; 50 mM Na4P207; 10 mM Na3VO4; 10 mM EGTA; 10 mM EDTA; 1% NP-40; 10 μg/ml Leupeptin; 10 μg/ml Aprotinin; 2 mM PMSF and 20 nM Okadaic acid). After homogenization, lysates were rotated for 1 h at 4° C. and then subjected to centrifugation at 13,200 rpm for 20 min at 4° C. The lipid layer was removed and the supernatant was transferred into Eppendorf tubes for centrifugation. This process was repeated for 2 times to get rid of lipid completely. Protein concentration was quantified by using Protein Assay Kit (Bio-Rad). Equivalent protein concentration in each sample was prepared and boiled at 100° C. for 5 min in Laemmli buffer. The lysates were cooled to room temperature before loading for western blot analysis."}, "[3]": {"tested_on": "XBP1s", "test": "Co-expression of kinase constructs with XBP1s in transfected cells", "assay_type": "cell-based", "conditions": "p38 MAPK inhibitor 10 μM", "text": "To unravel the molecular mechanisms underlying the above observations, several different approaches were taken to explore whether activation of JNK, which is one of the most dominant signaling elements in SAPK signaling, affects XBP1s levels and nuclear translocation. […] It is known that MAPK kinase kinase (MKK) 4 and 7 are upstream kinases responsible for JNK activation (Tournier, C., et al. (2001) Genes Dev 15:1419-1426; Brancho, D., et al. (2003) Genes Dev 17:1969-1978) and anisomycin or TNFα cannot activate JNK in MKK4 and 7 double knock out cells (MKK4,7^−/−) (Tournier, C., et al. (2001) Genes Dev 15:1419-1426; Schaeffer, H. J. & Weber, M. J. (1999) Mol Cell Biol 19:2435-2444). In order to determine whether XBP1s can be regulated by anisomycin treatment in MKK4,7^−/− cells, these cells, along with their controls, were treated with anisomycin after XBP is expression. […] Furthermore, the experiments were repeated in JNK1,2^−/− and MKK4,7^−/− cells with TNFα. […] Finally, an MKK7-JNK1 fusion protein, previously shown to be a specific activator of JNK (Lei, K., et al. (2002) Mol Cell Biol 22:4929-4942), was used to investigate whether activation of JNK alone can have effect on XBP1s.\nA constitutively active form of MKK6 (MKK6Glu), one of the upstream kinases of p38 MAPK, was previously generated by mutation of Ser207 and […] to glutamate. […]"}, "[4]": {"tested_on": "XBP1s", "test": "FBS-induced XBP1s nuclear translocation in starved cells", "assay_type": "cell-based, mouse", "conditions": "16 h starved cells, inhibitor 10 μM before 10% FBS", "protocol": "XBP1s is generated in the liver when an animal is refed after a fasting period (Park, S. W., et al. (2010) Nature Med 16:429-437), likely mainly due to increased metabolic overloading. To create a metabolic overloading model in cells, following a 16 h starvation in medium without fetal bovine serum (FBS), cells were reincubated for 15, 30 and 60 minutes with medium containing 10% FBS, following which total and nuclear proteins or mRNA were isolated and used to analyze various parameters, including p38 MAPK activation, XBP1s nuclear migration, and splicing. When the cells were starved, then stimulated with medium containing 10% FBS, there was a robust increase in XBP1s splicing and nuclear translocation, as well as in activation of p38 MAPK (FIG. 10A). […] The same experiment was then repeated in p38α^−/− and MKK3,6^−/− cells. […] Moreover, FBS-induced XBP i s nuclear translocation was severely impaired in the MKK3,6^−/− cells (FIG. 10C)."}, "[5]": {"tested_on": "XBP1s", "test": "XBP1s levels in Ad-XBP1s-infected Fao cells", "assay_type": "cell-based", "conditions": "Ad-XBP1s-infected Fao cells (rat hepatoma)", "protocol": "as §1\nas §2, with “Ad-XBP s and Ad-Cre were generated as described previously (Ozcan, L., et al. (2009) Cell metabolism 9:35-51). For infection, cells were incubated with adenovirus in reduced volume of medium containing 1% FBS and antibiotics. Cells were gently rocked every 15 min for 1 h to increase efficiency of infection, and then fresh medium were added and cells were incubated for additional 15 h or 23 h.” left out\nWestern blot analysis was performed as previously described (Ozcan, L., et al. (2009) Cell metabolism 9:35-51). […] Relative protein levels were quantified by Image J program."}, "[6]": {"tested_on": "XBP1s", "test": "Cytoplasmic and nuclear XBP1s protein in cells", "assay_type": "cell-based, mouse", "conditions": "mutant XBP1s expressed in cells, anisomycin 25 ng/ml, vs WT", "protocol": "Cytoplasmic and nuclear protein fractions were extracted from cells by using nuclear protein extraction kit from Active Motif (Carlsbad, Calif.). Cells were maintained in 10 cm tissue culture dishes for nuclear/cytoplasmic extraction. After removal of the media, cells were washed with ice-cold phosphate buffered saline (PBS) containing phosphatase inhibitors. Subsequently, 3 ml of ice-cold PBS with phosphatase inhibitors was added and then cells were scrapped out of the dish. Collected cells were separated from PBS by centrifugation for 5 minutes at 500 rpm and resuspended with 500 μl of 1× hypotonic buffer. After 15-minute incubation in hypotonic buffer on ice, 25 μl of supplied detergent was added and cells were vortexed 10 seconds. Cells were centrifuged for 30 seconds at 14,000×g and supernatant (cytoplasmic fraction) was saved for further analysis. Remaining pellet, which contains nuclei, were resuspended with 50 μl of provided complete lysis buffer with 1 mM dithiothreitol (DTT), vortexed 10 seconds, and incubated for 30 minutes on ice. After 30-second vortexing and 10-minute centrifugation at 14,000×g, the supernatant was collected and analyzed as nuclear fraction."}}}
{"molecule": "CCOc1nc(NC(=O)Cc2cc(OC)ccc2OC)cc(N)c1C#N", "note": "[JNK inhibitor VIII]", "values": [{"measurement": "effect on anisomycin-mediated upregulation of XBP1s protein levels", "setting": "[1]; JNK inhibitor 10 μM 30 minutes, then anisomycin 25 ng/ml two hours", "result": "no effect"}]}
{"molecule": "C[S+]([O-])c1ccc(-c2nc(-c3ccncc3)c(-c3ccc(F)cc3)[nH]2)cc1", "note": "(stereo not drawn) [SB203580]", "values": [{"measurement": "GRP78 expression increase in liver after re-feeding", "setting": "[2]", "result": "but not in the inhibitor-treated group"}, {"measurement": "XBP1s mRNA levels in the liver of re-fed mice", "setting": "[2]", "result": "significantly increased"}, {"measurement": "ATF2 phosphorylation", "setting": "[2]; lean C57BL6 mice", "result": "dramatic reduction in phosphorylation"}, {"measurement": "XBP1s nuclear translocation in the liver after re-feeding", "setting": "[2]; lean C57BL6 mice, starved 24 hours, refed one hour", "result": "completely absent"}, {"measurement": "effect of MKK6Glu on XBP1s", "setting": "[3]", "result": "blocked the effect of MKK6Glu on XBP1s"}, {"measurement": "anisomycin-induced increase in XBP1s levels", "setting": "[1]; SB203580 10 μM 30 minutes, then anisomycin 25 ng/ml two hours", "result": "completely abolished"}, {"measurement": "FBS-induced XBP1s nuclear translocation", "setting": "[4]", "result": "completely eliminated XBP1s nuclear translocation"}, {"measurement": "XBP1s splicing", "setting": "[4]", "result": "without altering XBP1s splicing"}]}
{"molecule": "TNFα", "values": [{"measurement": "XBP1s levels", "setting": "[5]", "result": "dramatically upregulating their XBP1s levels"}, {"measurement": "XBP1s protein levels", "setting": "[1]; Ad-XBP1s-infected MEFs, increasing doses, two hours", "result": "markedly increased XBP1s protein levels"}, {"measurement": "XBP1s protein levels", "setting": "[1]; JNK1,2−/− cells", "result": "significant increase in XBP1s levels"}, {"measurement": "XBP1s levels", "setting": "[1]; MKK4,7−/− cells", "result": "significant increase in XBP1s levels"}]}
{"molecule": "B1", "values": [{"measurement": "decrease of XBP1s nuclear translocation", "setting": "[6]", "result": "about 49%"}]}
{"molecule": "B2", "values": [{"measurement": "decrease of XBP1s nuclear translocation", "setting": "[6]", "result": "about 79%"}]}
